Measurements from paper PMC9673804, “Design, synthesis and antitumor evaluation of novel pyrazolo[3,4-d]pyrimidines incorporating different amino acid conjugates as potential DHFR inhibitors” (Journal of Enzyme Inhibition and Medicinal Chemistry, 2022).
Values joined by “and” are separate entries in the source; they are usually repeats but may differ in a detail not shown here. Identical values can stand only once.

Tests used:
[1] = test system: colorectal carcinoma (HCT-116); assay: SRB cytotoxicity assay, HCT-116; assay type: cell-based; settings: Homo sapiens, HCT-116 cells
Method: (§1) The SRB colorimetric assay was employed to assess the synthesized compounds’ cytotoxic effects on several cancer cell lines (Table 1)[11–14]. […] Furthermore, the effect of tested compounds was evaluated on the normal immortalized HPDE cell line.
(§2) Sulforhodamine B (SRB) assay was employed to assay in-vitro antitumor activities of all the synthesised compounds as describer previously. […] The cell lines were obtained from the American Type Culture Collection (Rockville, USA).

human DHFR enzyme = molecular target: T1, human DHFR enzyme (Homo sapiens, UniProt P00374); assay: Elisa assay of human DHFR enzyme; assay type: biochemical; settings: for IC50: DHFR ELISA kit, triplicate; for inhibition at 0.1 µM: conc 0.1 uM; for inhibition at 1 µM: conc 1 uM; for inhibition at 10 µM: conc 10 uM; for inhibition at 100 µM: conc 100 uM
T1 construct: purchased MyBioSource MBS9312476
T1 sequence (P00374 1-187): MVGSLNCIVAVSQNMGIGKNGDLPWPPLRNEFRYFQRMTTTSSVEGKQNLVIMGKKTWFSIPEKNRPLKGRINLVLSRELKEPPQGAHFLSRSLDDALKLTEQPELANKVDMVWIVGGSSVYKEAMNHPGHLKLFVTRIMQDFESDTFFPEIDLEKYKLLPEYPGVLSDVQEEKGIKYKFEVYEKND
Method: Enzyme-linked immunosorbent assay (ELISA) assay technique was used to evaluate the anti-DHFR effects of all the synthesised compounds on as described previously. The DHFR ELISA kit (MyBioSource, MBS9312476 San Diego, CA, USA) was used according to the manufacturer instructions. […] The test was repeated in triplicate, and the significance was assessed by one-way ANOVA test followed by Tukey’s posttest, where p < 0.05 was considered significance.

[2] = test system: human prostate cancer (PC-3); assay: SRB cytotoxicity assay, PC-3; assay type: cell-based; settings: PC-3 cells
Method: as §1, §2

[3] = test system: cervical carcinoma (HeLa); assay: SRB cytotoxicity assay, HeLa; assay type: cell-based; settings: Homo sapiens, HeLa cells
[4] = test system: mammary gland breast cancer (MCF-7); assay: SRB cytotoxicity assay, MCF-7; assay type: cell-based; settings: Homo sapiens, MCF7, MCF-7 cells
Method: as §1, §2

[5] = test system: normal immortalised pancreatic cell line (HPDE); assay: SRB cytotoxicity assay, normal HPDE cells; assay type: cell-based; settings: normal immortalized HPDE cell line
Method: as §1, §2

[6] = test system: pancreatic human cancer cell lines (BxPC-3); assay: SRB cytotoxicity assay, BxPC-3; assay type: cell-based; settings: BxPC-3 cells
Method: as §1, §2

[7] = test system: human hepatocellular carcinoma (HepG-2); assay: SRB cytotoxicity assay, HepG-2; assay type: cell-based; settings: HepG2, HepG-2 cells
Method: as §1, §2

Row | SMILES | IC50 [1] | IC50 (human DHFR enzyme) | inhibition at 0.1 µM (human DHFR enzyme) | inhibition at 1 µM (human DHFR enzyme) | inhibition at 10 µM (human DHFR enzyme) | inhibition at 100 µM (human DHFR enzyme) | IC50 [2] | IC50 [3] | IC50 [4] | IC50 [5] | IC50 [6] | IC50 [7]
1 | O=C(NC(CS)C(=O)O)c1ccc(Nc2ncnc3c2cnn3-c2ccccc2)cc1 (stereo not drawn) [Compound 7g, 3-Mercapto-2-{4-[(1-phenyl-1H-pyrazolo[3,4-d]pyrimidin-4-yl)amino]benzamido}propanoic acid] | 12.2 ± 1.2 µM | 1.28 ± 0.03 µM | 37% | 55% | 70% | 84% | 13.2 ± 1.52 µM | 12.3 ± 1.2 µM | 10.8 ± 1.1 µM | > 50 µM | 15.2 ± 0.22 µM | 10.2 ± 0.92 µM
2 | O=C(NC(Cc1c[nH]cn1)C(=O)O)c1ccc(Nc2ncnc3c2cnn3-c2ccccc2)cc1 (stereo not drawn) [Compound 7i, 3-(1h-Imidazol-4-yl)-2-{4-[(1-phenyl-1H-pyrazolo[3,4-d]pyrimidin-4-yl)amino]benzamido}-propanoic acid] | 13 ± 1.01 µM | < 1 µM and 0.82 µM | 35% | 63% | 80% | 94% | 12.8 ± 2.01 µM | 10.9 ± 1.99 µM | 13.2 ± 1.21 µM | > 50 µM | 10.5 ± 3.01 µM | 9.26 ± 1.56 µM
3 | CC(NC(=O)c1ccc(Nc2ncnc3c2cnn3-c2ccccc2)cc1)C(=O)O (stereo not drawn) [Compound 7b, 2-{4-[(1-Phenyl-1H-pyrazolo[3,4-d]pyrimidin-4-yl)amino]benzamido}propanoic acid] | 29.6 ± 1.91 µM | 42.5 ± 0.78 µM | 6.4% | 20% | 38% | 72% | 34.2 ± 2.61 µM | 29.2 ± 1.9 µM | 35.7 ± 2.09 µM | > 50 µM | 31.2 ± 2.8 µM | 19.2 ± 1.87 µM
4 | CSCCC(NC(=O)c1ccc(Nc2ncnc3c2cnn3-c2ccccc2)cc1)C(=O)O (stereo not drawn) [Compound 7h, 4-(Methylthio)-2-{4-[(1-phenyl-1H-pyrazolo[3,4-d]pyrimidin-4-yl)amino]benzamido}butanoic acid] | 19.3 ± 0.85 µM | 8.47 ± 0.18 µM | 21% | 36% | 54% | 81% | 17 ± 2.02 µM | 18 ± 1.2 µM | 20 ± 2.01 µM | > 50 µM | 17.9 ± 1.03 µM | 17 ± 0.92 µM
5 | O=C(NC(Cc1ccc(O)cc1)C(=O)O)c1ccc(Nc2ncnc3c2cnn3-c2ccccc2)cc1 (stereo not drawn) [Compound 7m, 3-(4-Hydroxyphenyl)-2-{4-[(1-phenyl-1H-pyrazolo[3,4-d]pyrimidin-4-yl)amino]benzamido}-propanoic acid] | 13.3 ± 2.21 µM | 1.34 ± 0.03 µM | 36% | 52% | 73% | 86% | 12.7 ± 1.87 µM | 11.8 ± 1.13 µM | 11.3 ± 1.28 µM | > 50 µM | 12 ± 1.14 µM | 14.2 ± 0.98 µM
6 | O=C(c1ccc(Nc2ncnc3c2cnn3-c2ccccc2)cc1)n1nnc2ccccc21 [Compound 6, {1H-benzo[d][1,2,3]triazol-1-yl}{4-[(1-phenyl-1H-pyrazolo-[3,4-d]pyrimidin-4-yl)-amino]phenyl}-methanone] | 17.3 ± 2.18 µM | 7.99 ± 0.16 µM | 17% | 29% | 61% | 89% | 14.9 ± 1.24 µM | 15.1 ± 1.21 µM | 11.9 ± 1.1 µM | > 50 µM | 14.2 ± 1.36 µM | 13 ± 1.86 µM
7 | O=C(O)CCC(NC(=O)c1ccc(Nc2ncnc3c2cnn3-c2ccccc2)cc1)C(=O)O (stereo not drawn) [Compound 7e, 2-{4-[(1-Phenyl-1H-pyrazolo[3,4-d]pyrimidin-4-yl)amino]benzamido}pentanedioic acid] | 15.3 ± 1.18 µM | 1.83 ± 0.04 µM | 28% | 57% | 72% | 89% | 13.8 ± 1.14 µM | 13.1 ± 1.01 µM | 11.9 ± 1.1 µM | > 50 µM | 15.2 ± 1.15 µM | 16 ± 0.8 µM
8 | CCC(C)C(NC(=O)c1ccc(Nc2ncnc3c2cnn3-c2ccccc2)cc1)C(=O)O (stereo not drawn) [Compound 7d, 3-Methyl-2-{4-[(1-phenyl-1H-pyrazolo[3,4-d]pyrimidin-4-yl)amino]benzamido}pentanoic acid] | 10.1 ± 1.01 µM | < 1 µM and 0.43 µM | 42% | 66% | 85% | 95% | 9.99 ± 0.81 µM | 8.09 ± 0.51 µM | 5.51 ± 0.28 µM | > 50 µM | 11.2 ± 0.41 µM | 9.09 ± 0.71 µM
9 | O=C(O)CNC(=O)c1ccc(Nc2ncnc3c2cnn3-c2ccccc2)cc1 [Compound 7a, 2-{4-[(1-Phenyl-1H-pyrazolo[3,4-d]pyrimidin-4-yl)amino]benzamido}acetic acid] | 28.2 ± 1.93 µM | 13.3 ± 0.24 µM | 12% | 30% | 57% | 81% | 23 ± 1.03 µM | 19.4 ± 1.21 µM | 15.3 ± 1.29 µM | > 50 µM | 19.4 ± 1.56 µM | 15.5 ± 0.96 µM
10 | COc1cccc2c1C(=O)c1c(O)c3c(c(O)c1C2=O)C[C@@](O)(C(=O)CO)C[C@@H]3O[C@H]1C[C@H](N)[C@H](O)[C@H](C)O1 [Doxorubicin, reference compound] | – | – | – | – | – | – | 9.01 ± 0.09 µM | – | 4.25 ± 0.15 µM | > 50 µM | 7.23 ± 0.1 µM | 4.6 ± 0.44 µM
11 | O=C(NC(Cc1c[nH]c2ccccc12)C(=O)O)c1ccc(Nc2ncnc3c2cnn3-c2ccccc2)cc1 (stereo not drawn) [Compound 7k, 3-(1h-Indol-3-yl)-2-{4-[(1-phenyl-1H-pyrazolo[3,4-d]pyrimidin-4-yl)amino]benzamido}propanoic acid] | 18 ± 1.23 µM | 7 ± 0.17 µM | 21% | 37% | 60% | 77% | 19.9 ± 1.35 µM | 19.5 ± 1.1 µM | 28.9 ± 1.91 µM | > 50 µM | 19.1 ± 1.23 µM | 25.54 ± 0.14 µM
12 | O=C(O)C1CCCN1C(=O)c1ccc(Nc2ncnc3c2cnn3-c2ccccc2)cc1 (stereo not drawn) [Compound 7j, 1-{4-[(1-Phenyl-1H-pyrazolo[3,4-d]pyrimidin-4-yl)amino]benzoyl}pyrrolidine-2-carboxylic acid] | 8.1 ± 0.2 µM | < 1 µM and 0.54 µM | 41% | 64% | 80% | 93% | 11.2 ± 0.7 µM | 9.29 ± 0.2 µM | 8.19 ± 1.2 µM | > 50 µM | 6.19 ± 0.43 µM | 10.3 ± 1.2 µM
13 | CN(Cc1cnc2nc(N)nc(N)c2n1)c1ccc(C(=O)N[C@@H](CCC(=O)O)C(=O)O)cc1 [Methotrexate, methotrexate, reference compound] | 99.98 ± 0.22 µM | – | – | – | – | – | 42.3 ± 7.25 µM | 294.8 ± 0.51 µM | 66.11 ± 0.15 µM | > 50 µM | 29.1 ± 0.31 µM | 800.24 ± 0.16 µM
14 | O=C(NC(Cc1ccccc1)C(=O)O)c1ccc(Nc2ncnc3c2cnn3-c2ccccc2)cc1 (stereo not drawn) [Compound 7l, 3-Phenyl-2-{4-[(1-phenyl-1H-pyrazolo[3,4-d]pyrimidin-4-yl)amino]benzamido}propanoic acid] | 13 ± 0.89 µM | < 1 µM and ~0.66 µM and 0.66 µM | 34% | 68% | 81% | 92% | 10.1 ± 0.9 µM | 9.05 ± 1.2 µM | 10.7 ± 1.09 µM | > 50 µM | 11.5 ± 0.76 µM | 13.2 ± 1.29 µM
15 | CC(C)C(NC(=O)c1ccc(Nc2ncnc3c2cnn3-c2ccccc2)cc1)C(=O)O (stereo not drawn) [Compound 7c, 3-Methyl-2-{4-[(1-phenyl-1H-pyrazolo[3,4-d]pyrimidin-4-yl)amino]benzamido}butanoic acid] | 10.6 ± 1.1 µM | < 1 µM and ~0.61 µM and 0.61 µM | 39% | 65% | 80% | 94% | 11.2 ± 0.34 µM | 9.39 ± 0.25 µM | 6.56 ± 0.18 µM | > 50 µM | 10.2 ± 1.01 µM | 12.2 ± 1.14 µM
